In patent US20090226427A1, “NOVEL PHARMACEUTICAL COMPOSITIONS FOR MODULATING ANGIOGENESIS” (priority 1999, published 2009):

Columns and labels:
endothelial cells = experiment: sandwich Matrigel model of endothelial tube formation; format: cell-based
Description: Indeed, while endothelial cells culture leads to pavimentous organization when plated on dishes (FIG. 1A), endothelial cells progressively form tubes when cultured within gels of collagen, fibrin or Matrigel®. Accordingly, in the “3-D model”, endothelial cells are mixed to the matrix before gelification and tube-like structures are obtained after 48-72 hours (FIG. 1B); this model, however, reduces the efficiency of transfection. In the “sandwich model”, cells are first cultured to confluence on a first layer of matrix, and are then covered by a second matrix layer; cells are easily transfected in the interval preceding the addition of the upper layer. The latter technique allows the formation of endothelial tubes in 3-6 hours; the tube structures are mature 12 hours after induction (FIG. 1C) and then start to regress.
Of note, when endothelial cells were transfected with an irrelevant construct (β-galactosidase-encoding), no change in the rate and extent of tube formation was observed.

CaM/eNOS interaction = experiment: CaM/eNOS co-immunoprecipitation, EC; format: cell-based, human
Description: (§1) Immunoprecipitation, Immunoblotting, and Kinase Assay was performed as follows: EC were homogenized in a buffer containing phosphatase and protease inhibitors (Garcia-Cardena, G., et al. (1998) Nature 392, 821-824), and processed for immunoblotting or immunoprecipitation in a octyl glucoside-containing buffer as described previously (Feron, O., et al. (1998) J. Biol. Chem. 273, 3125-3128). Caveolin, eNOS, and hsp90 antibodies were from BD Transduction Labs, Akt and phospho-Akt antibodies from BD PharMingen, CaM antibody from Santa Cruz, and phospho-eNOS antibody from NEB Cell Signaling Technology. Akt activity was measured using a non-radioactive immunoprecipitation kinase assay kit (NEB Cell Signaling Technology).
In order to further dissect the calcium dependence of the Akt-mediated phosphorylation of eNOS, the eNOS/CaM association was examined after 2 and 30 min VEGF exposure, i.e. at the maximum of the calcium transient and after the return of [Ca^2+]i to its basal level, respectively.

eNOS = experiment: nitrite (NO2-) detection, VEGF-stimulated EC; format: cell-based, human
Description: Nitrite was Detected as follows: Quantitative analysis of nitrite (NO2^−) was used as an index of NO production. Briefly, aliquots of the medium bathing intact EC were collected at the time intervals corresponding to either 0-2 or 5-30 min of VEGF exposure. For the latter period, the medium bathing the VEGF-stimulated cells for the first 5 min was discarded and replaced by fresh VEGF-containing medium for the next 25 min. […] Data are normalized for the amount of protein in the dish, and are presented for convenience as mean+/−S.E. Statistical analyses were made using Student's t test or one-way ANOVA where appropriate.

hsp90/eNOS interaction = experiment: hsp90/eNOS co-immunoprecipitation, VEGF-exposed HUVEC; format: cell-based, human
phospho-Ser473-Akt [1] = experiment: phospho-Ser473-Akt immunoblot, VEGF-exposed HUVEC; format: cell-based, human
phospho-Ser1177-eNOS [2] = experiment: phospho-Ser1177-eNOS immunoblot, statin-exposed HUVECs; conditions: for effect on statin-induced phosphorylation of eNOS: atorvastatin 1 μmol/L, LY294002 10 μmol/L, geldanamycin 1 μg/mL, mevalonate 1 mmol/L, BAPTA-AM 20 μmol/L, CSD peptide loading
phospho-Ser1177-eNOS [3] = experiment: phospho-Ser1177-eNOS immunoblot, VEGF-exposed HUVEC; format: cell-based, human
Akt/eNOS interaction = experiment: Akt/eNOS co-immunoprecipitation, VEGF-exposed HUVEC; format: cell-based, human
Description: Immunoprecipitation, Immunoblotting, and Kinase Assay was performed as follows: EC were homogenized in a buffer containing phosphatase and protease inhibitors (Garcia-[…] ., et al. (1998) Nature 392, 821-824), and processed for immunoblotting or immunoprecipitation in a octyl glucoside-containing buffer as described previously (Feron, O., et al. (1998) J. Biol. Chem. 273, 3125-3128). Caveolin, eNOS, and hsp90 antibodies were from BD Transduction Labs, Akt and phospho-Akt antibodies from BD PharMingen, CaM antibody from Santa Cruz, and phospho-eNOS antibody from NEB Cell Signaling Technology. Akt activity was measured using a non-radioactive immunoprecipitation kinase assay kit (NEB Cell Signaling Technology). It was further analyzed whether eNOS and Akt interact together in eNOS/Akt co-immunoprecipitation experiments. […] In an attempt to appreciate the proportion of eNOS involved in the geldanamycin-sensitive recruitment of Akt, the reverse co-immunoprecipitation assay was further developed: hsp90 and Akt antibodies were used to immunoprecipitate eNOS (which was detected by immunoblotting) and the supernatants of these immunoprecipitations were checked for residual eNOS presence; for this purpose, the immunoprecipitated supernatants were submitted to a second immunoprecipitation with eNOS antibodies.

eNOS/hsp90 interaction = experiment: eNOS/hsp90 co-immunoprecipitation, statin-exposed HUVECs; conditions: mevalonate 1 mmol/L, BAPTA-AM 20 μmol/L, CSD peptide loading
phospho-Ser473-Akt [4] = experiment: phospho-Ser473-Akt immunoblot, statin-exposed HUVECs; conditions: for (basal) level of Akt phosphorylation: phosphatase inhibitor
[Ca^2+]i = Fura-2 measurement of [Ca2+]i in VEGF-exposed EC; format: cell-based, human
Description: Alternating wavelength excitation of 340 and 380 nm was provided by a motorized filter wheel. The image pairs monitored by the Ionoptix Myocam camera were processed by the IonWizard software (Ionoptix, Milton, Mass.) and are presented as the fluorescence ratio (340/380 nm), a direct index to the [Ca^2+]i. In some experiments, Fura-2-loaded cells were preincubated with the intracellular calcium chelator BAPTA/AM (20 μM).

caveolin-eNOS complex = experiment: caveolin/eNOS co-immunoprecipitation, VEGF-exposed HUVEC; format: cell-based, human; conditions: for effect on VEGF-induced caveolin/eNOS dissociation: geldanamycin, BAPTA
Description: as §1, with “(1998) J. Biol. Chem. 273, 30249-30254) and plated at 5×10^5 cells/ml. […] Immunoprecipitation,” for “Immunoprecipitation,”, “(Garcia-[…].,” for “(Garcia-Cardena, G.,”, “Technology). […] First, extracts were immunoprecipitated with caveolin antibodies and the immuno-precipitation immunoblotted with eNOS antibodies (FIG. 10A, top). […] Experiments were then performed to determine the time course of hsp90 interaction with eNOS.” for “Technology).”

CMECs = experiment: angiogenesis assay on Matrigel, CMECs; format: cell-based, Mouse; conditions: CMECs; L-NAME 5 mmol/L coincubation; geldanamycin 1 μg/mL 30-minute preincubation
Description: (§2) Tube formation was observed using an inverted phase-contrast microscope (Zeiss Axiovert 25), and images were captured with a videographic system (Pixera Pro). The tube formation index was determined by measuring the length of tubes in random fields from each well using the Image J program. Statistical analyses were made using the Student t test or one-way ANOVA where appropriate.

AoECs = experiment: aortic ring culture in Matrigel, AoEC network organization; format: cell-based, rat; conditions: L-NAME added at the time of serum deprivation
Description: as §2, with “Cultures of AoECs and CoMECs organized in a network were then challenged at day 5 by incubation under serum-free conditions for 24 to 48 hours with or without some of the drugs mentioned above. […] Tube” for “Tube”

wild-type eNOS = experiment: nitrite production in transfected COS cells, wild-type eNOS; format: cell-based
caveolin [5] = experiment: caveolin immunoblot, AoECs; format: cell-based, rat; conditions: AoECs; culture medium supplemented with mevalonate
Source text: (§3) Therefore, the effects of statin exposure on the absolute amounts of caveolin in AoECs and CMECs was examined.

[6] = test system: phospho-Akt/eNOS interaction; experiment: eNOS/phospho-Akt co-immunoprecipitation, statin-exposed HUVECs; conditions: co-IP
caveolin [7] = experiment: caveolin immunoblot, AECs; format: cell-based, Bovine; conditions: AECs; culture medium supplemented with mevalonate
Source text: as §3

HUVECs = experiment: angiogenesis assay on Matrigel, HUVECs; format: cell-based, human; conditions: HUVECs on Matrigel, atorvastatin
Description: as §2
Transfection and peptide loading was performed by reversible permeabilization: HUVECs were transfected with the hsp90 cDNA (a gift from Dr W. C. Sessa, Yale University, New Haven, Conn.) using Lipofectamine (Invitrogen) according to the manufacturer's protocol; an irrelevant plasmid encoding β-galactosidase was used as a control to obtain identical amounts of transfected DNA in each condition. HUVECs were also reversibly permeabilized, as previously reported (Feron et al. J Biol. Chem. 1998; 273:30249-30254), to introduce synthetic peptides derived from the caveolin scaffolding domain (CSD).

phospho-Akt = phospho-Akt immunoblot, insulin-stimulated cardiac myocytes; format: cell-based; conditions: neonatal mouse cardiac myocytes
Description: (§4) Cell Culture was performed as follows: Freshly isolated human umbilical vein EC (HUVEC) were cultured to confluence in 100-mm dishes in a 2:1 mixture of M199/endothelial cell basal medium containing 10% serum; control experiments were also performed with myocytes isolated from neonatal mice as previously detailed (Feron, et al. (1998) J. Biol. Chem. 273, 30249-30254) and plated at 5×10^5 cells/ml. Serum-starved EC and myocytes were exposed for the indicated periods of time to VEGF (50 ng/ml) and insulin (12.5 milliunits/ml), respectively, in the presence or absence of various pharmacological modulators (30-60 min preincubation with 1 μg/ml geldanamycin (Invitrogen Life Technolo-gies) or 10 μM LY294002 (Sigma)).
(§5) Accordingly, neonatal mouse cardiac myocytes were exposed to insulin (a known activator of Akt in myocytes) for 5 min with or without geldanamycin and examined the phosphorylation status of Akt and eNOS. […] Myocytes show native expression of GSK-3 and were used to determine whether geldanamycin could influence the phosphorylation of this other Akt substrate.

phospho-eNOS = phospho-eNOS immunoblot, insulin-stimulated cardiac myocytes; format: cell-based; conditions: neonatal mouse cardiac myocytes
Description: as §4, §5

phospho-GSK-3 = phospho-GSK-3 immunoblot, insulin-stimulated cardiac myocytes; format: cell-based; conditions: neonatal mouse cardiac myocytes
Description: as §4, §5

[8] = eNOS antibodies, geldanamycin 1 μg/ml 30 min, BAPTA
[9] = nitrite production normalized per min

CC(=O)N[C@@H](C(=O)O)C(C)(C)SN=O (racemic) [SNAP]
effect on the anti-angiogenic effect observed in caveolin-overexpressing cells (endothelial cells; caveolin-overexpressing cells): correct this anti-angiogenic effect
endothelial tube formation (endothelial cells; non-transfected cells): accelerated the endothelial tube formation

CNc1ccc2oc(C[C@H]3O[C@@]4(CC[C@H]3C)O[C@H]([C@H](C)C(=O)c3ccc[nH]3)[C@H](C)C[C@H]4C)nc2c1C(=O)O [A23187]
eNOS/CaM association (CaM/eNOS interaction; short exposure to A23187): led to the early association between eNOS and CaM
early NO2^− production (0-2 min) relative to the level obtained with VEGF (eNOS; 1 μM A23187 pulse for 2 min): ~3 fold
long-term NO2^− production compared with VEGF-exposed cells (eNOS; 1 μM A23187 pulse for 2 min, then Ca^2+-free medium): significantly lower

CC(=O)OCOC(=O)CN(CC(=O)OCOC(C)=O)c1ccccc1OCCOc1ccccc1N(CC(=O)OCOC(C)=O)CC(=O)OCOC(C)=O [BAPTA-AM]
effect on VEGF-induced hsp90/eNOS co-immunoprecipitation (hsp90/eNOS interaction; [8]): completely prevented
effect on VEGF-induced Akt phosphorylation (phospho-Ser473-Akt [1]; LY294002 10 μM 1-h preincubation, geldanamycin 1 μg/ml, BAPTA): not altered
effect on VEGF-induced CaM/eNOS interaction (CaM/eNOS interaction; BAPTA pretreatment): completely abrogated
effect on statin-induced phosphorylation of eNOS (phospho-Ser1177-eNOS [2]): abrogated
effect on VEGF-induced eNOS phosphorylation (phospho-Ser1177-eNOS [3]; LY294002 10 μM 1-h preincubation, geldanamycin 1 μg/ml, BAPTA-AM 20 μM): prevented
effect on VEGF-induced Akt/eNOS co-immunoprecipitation (Akt/eNOS interaction; [8]): prevented
effect on atorvastatin-stimulated eNOS/hsp90 interaction (eNOS/hsp90 interaction): abrogated
effect on statin-induced phosphorylation of Akt (phospho-Ser473-Akt [4]; CSD peptide loading, BAPTA-AM added 30 minutes before statin): blocked
effect on VEGF-evoked calcium transient ([Ca^2+]i; 20 μM BAPTA-AM): completely abrogated
effect on the basal level of [Ca^2+]i ([Ca^2+]i; 20 μM BAPTA-AM): no effect
level of eNOS activation for the 5-30-min period (eNOS; BAPTA added after the early phase (at t=5 min), versus vehicle): no significant reduction
effect on early VEGF-induced eNOS activation (0-2 min) (eNOS; [9]): sufficient to block
effect on late VEGF-induced eNOS activation (5-30 min) (eNOS; [9]): sufficient to block
effect on VEGF-induced caveolin/eNOS dissociation (caveolin-eNOS complex): complete inhibition

COC(=O)[C@@H](N)CCCNC(=N)N[N+](=O)[O-] [L-NAME, N^G-nitro-L-arginine methyl ester]
effect on atorvastatin-induced tube formation (CMECs): almost completely blocked
effect on statin stabilisation of the network (AoECs): abrogated the beneficial effects of statin pretreatment

COC1=C2C[C@@H](C)C[C@H](OC)[C@H](O)[C@@H](C)/C=C(\C)[C@H](OC(N)=O)[C@@H](OC)/C=C\C=C(/C)C(=O)NC(=CC1=O)C2=O [geldanamycin]
part of the recombinant hsp90- and hsp90/Akt-mediated increase in NO production blocked (wild-type eNOS; COS cells, preincubation): 70-95%
part of the Akt-dependent increase in nitrite production blocked (wild-type eNOS; WT-eNOS COS cells pretreated for 30 min): around 70%
effect on early VEGF-induced eNOS activation (0-2 min) (eNOS; [9]): no significant effect
effect on VEGF-induced caveolin/eNOS dissociation (caveolin-eNOS complex): no significant effect

CC(O)(CCO)CC(=O)O (stereo not shown) [mevalonate]
effect on statin-induced reduction in caveolin abundance (caveolin [5]): blocked the statin-induced reduction in caveolin abundance
effect on statin-induced phosphorylation of eNOS (phospho-Ser1177-eNOS [2]): reverse the stimulatory effect
effect on phospho-Akt/eNOS interaction upon statin [6]: reverse the stimulatory effect
effect on statin-induced reduction in caveolin abundance (caveolin [7]): blocked the statin-induced reduction in caveolin abundance
effect on atorvastatin-stimulated eNOS/hsp90 interaction (eNOS/hsp90 interaction): reverse the stimulatory effect

C=C1[C@@H](O)[C@@H]2O[C@]3(CC[C@H](/C=C/[C@@H](C)[C@@H]4CC(C)=C[C@@]5(O[C@H](C[C@@](C)(O)C(=O)O)CC[C@H]5O)O4)O3)CC[C@H]2O[C@@H]1[C@@H](O)C[C@H](C)[C@H]1O[C@@]2(CCCCO2)CC[C@H]1C [okadaic acid]
effect on statin-induced tube formation (HUVECs): stimulated basal and statin-induced tube formation
increase of statin-induced phosphorylation of eNOS in the presence of okadaic acid (phospho-Ser1177-eNOS [2]; okadaic acid versus okadaic acid+statin, 100 nmol/L): ~3 fold
effect on phospho-Akt/eNOS interaction upon statin [6]: promoted
(basal) level of Akt phosphorylation (phospho-Ser473-Akt [4]): dramatically increased

VEGF
proportion of eNOS pool engaged in hsp90 interaction (hsp90/eNOS interaction; 5 min VEGF, reverse immunoprecipitation with hsp90 antibodies): around half of the total eNOS pool
cell exposure needed for hsp90 co-immunoprecipitation with eNOS (hsp90/eNOS interaction; VEGF 50 ng/ml): ≥ 2 min
time at which Akt phosphorylation was already observed (phospho-Ser473-Akt [1]; VEGF exposure): 30 s
persistence of the CaM/eNOS association (CaM/eNOS interaction; VEGF): at least 30 min
time at which CaM could be detected in the eNOS immune complex (CaM/eNOS interaction; after VEGF stimulation): 2 min
time to maximal eNOS phosphorylation (phospho-Ser1177-eNOS [3]; VEGF exposure): at least 5 min
proportion of eNOS pool engaged in Akt interaction (Akt/eNOS interaction; 5 min VEGF, reverse immunoprecipitation with Akt antibodies): around half of the total eNOS pool
time from which Akt association to eNOS could be detected (Akt/eNOS interaction; VEGF stimulation): ≥ 2 min
time to peak of calcium transient ([Ca^2+]i; VEGF exposure): 1 min
rate of NO2- produced in the first 5-min interval versus the following 30 min (eNOS; after VEGF stimulation, preliminary experiments): 2-3 fold
absolute amount of NO2^− produced in the 5-30-min period versus the first 2-min VEGF exposure (eNOS; control conditions): 5.5 fold
amounts of NO2^− in the 55-60-min interval (eNOS; following VEGF stimulation): below the detection level
time to complete dissociation of eNOS from caveolin (caveolin-eNOS complex; VEGF 50 ng/ml): ≤ 2 min
time for which dissociation was maintained (caveolin-eNOS complex; in the presence of VEGF): at least 30 min

calyculin
(basal) level of Akt phosphorylation (phospho-Ser473-Akt [4]): stimulated Akt phosphorylation

insulin: a known activator of Akt in myocytes
Akt phosphorylation (phospho-Akt): stimulatory effect
eNOS phosphorylation (phospho-eNOS): stimulatory effect
GSK-3 phosphorylation (phospho-GSK-3): stimulatory effect
